Assay results taken from patent publication US4639452A, “Arylic derivatives of piperazine, the method of preparing same and their application in therapeutics” (Delalande S.A., priority 1982, dated 1987).

Tests used:
male SWISS-WEBSTER mice = test: mnesic retention test of exploratory activity (APELAB ACTIMETER); format: in vivo; conditions: re-measured after a week; for inhibition in vivo at 10 mg/kg: dose 10 mg/kg i.v.
[1] = approximate acute toxicity (MILLER and TAINTER); conditions: mouse, in vivo, mice
Procedure: The approximate acute toxicity is determined according to the method described by MILLER and TAINTER in Proc. Soc. Exp. Biol. Med. 57, 261 (1944).

[2] = Mus musculus, iv, 168 h, dose 3 mg/kg i.v., read-out: Mnesic test: % reduction of the exploratory activity
[3] = Mus musculus, iv, 168 h, dose 1 mg/kg i.v., read-out: Mnesic test: % reduction of the exploratory activity
[4] = Mus musculus, iv, 168 h, read-out: Mnesic test: % reduction of the exploratory activity

Molecule | inhibition in vivo at 3 mg/kg (male SWISS-WEBSTER mice; [2]) | mortality ([1]; iv, dose 200 mg/kg i.v.) | other results
COc1cc(/C=C/C(=O)N2CCN(CC(=O)NCc3cc(OC)c(OC)c(OC)c3)CC2)cc(OC)c1OC [compound 29] | 9.9% | 0% | –
trans-1-(3,4,5-trimethoxy)cinnamoyl 4-(2-hydroxy)ethyl piperazine maleate [Code number 2] | – | – | Mnesic test: % reduction of the exploratory activity (male SWISS-WEBSTER mice; dose 3 mg/kg i.v.): 17.5%
O=C(/C=C/c1ccc2c(c1)OCO2)N1CCN(CC(=O)N2CCCC2)CC1 [compound 37] | – | – | inhibition in vivo at 1 mg/kg (male SWISS-WEBSTER mice; [3]): 25.2%; mortality ([1]; ip, dose 400 mg/kg i.p.): 0%
O=C(/C=C/c1ccc(Cl)cc1)N1CCN(CC(=O)N2CCCC2)CC1 [compound 47] | – | 0% | inhibition in vivo at 1 mg/kg (male SWISS-WEBSTER mice; [3]): 26.5%
trans-1-(3,4-methylenedioxy)cinnamoyl 4-pyrrolidinocarbonyl piperazine, hydrochloride [Code number 37] | – | – | Mnesic test: % reduction of the exploratory activity (male SWISS-WEBSTER mice; dose 1 mg/kg i.v.): 14.7%
COc1cc(/C=C/C(=O)N2CCN(CC(=O)N3CCCC3)CC2)cc(OC)c1 [compound 43] | – | – | inhibition in vivo at 10 mg/kg (male SWISS-WEBSTER mice; [4]): 23.8%
COc1cc(/C=C/C(=O)N2CCN(CC(=O)NC3CCCC3)CC2)cc(OC)c1OC [compound 23] | 18.4% | 0% | –
O=C(/C=C/c1ccc(Cl)cc1)N1CCN(CC(=O)N2CCCCC2)CC1 [compound 56] | 23.5% | – | –
O=C(/C=C/c1ccc(F)cc1)N1CCN(CC(=O)N2CCCC2)CC1 [compound 38] | 28.6% | 10% | –
COc1ccccc1/C=C/C(=O)N1CCN(CC(=O)N2CCCC2)CC1 [compound 48] | – | 0% | inhibition in vivo at 30 mg/kg (male SWISS-WEBSTER mice; Mus musculus, iv, 168 h, dose 30 mg/kg i.v., read-out: Mnesic test: % reduction of the exploratory activity): 26.1%
O=C(/C=C/c1ccc(Cl)c(Cl)c1)N1CCN(CC(=O)N2CCCC2)CC1 [compound 40] | 28.9% | – | mortality ([1]; iv, dose 120 mg/kg i.v.): 50%
O=C(/C=C/c1ccccc1)N1CCN(CC(=O)N2CCCC2)CC1 [compound 36] | – | 0% | inhibition in vivo at 10 mg/kg (male SWISS-WEBSTER mice; [4]): 18.4%
COc1cc(/C=C/C(=O)N2CCN(CC(N)=O)CC2)cc(OC)c1OC [Code number 11, trans-1-(3,4,5-trimethoxy)cinnamoyl 4-aminocarbonylmethyl piperazine] | 28.4% | 0% | –
COc1cc(/C=C/C(=O)N2CCN(CC(=O)NC(C)C)CC2)ccc1O [compound 26] | – | – | inhibition in vivo at 10 mg/kg (male SWISS-WEBSTER mice; [4]): 14.3%
O=C(/C=C/c1ccc2c(c1)OCO2)N1CCN(CC(=O)N2CCCCC2)CC1 [compound 55] | 18.7% | – | –
COc1ccc(OC)c(/C=C/C(=O)N2CCN(CC(=O)N3CCCC3)CC2)c1 [compound 49] | – | – | inhibition in vivo at 1 mg/kg (male SWISS-WEBSTER mice; [3]): 15.7%; mortality ([1]; iv, dose 205 mg/kg i.v.): 50%
